Read-outs that look alike come from different tables or passages of the source.
Assays:
plasmopara viticola = test: Indoor toxicity measurement, leaf disk method; type: in vivo; conditions: grape downy mildew; for EC50: Plasmopara viticola, foliar, read-out: Measured EC50 value (X2)
Protocol: After the pesticide solution was naturally dried in air, each treated leaf disc with an upward back was placed in a culture dish, and absorbent paper moistened with the same pesticide solution was placed at the bottom of the culture dish. 15 leaf discs were placed in a concentric circle for each dish, with 4 repetitions for 1 dish treated. Blank control was treated with a 0.1% Tween-80 aqueous solution. Inoculation was performed after 24 h of pesticide treatment. […] The spore sac suspension was cultured with an artificial climate chamber. […] The severity of the disease was determined according to the percentage of the diseased area on the leaf disc to the leaf disc area, the number of diseased leaf discs and the severity of the disease were recorded, and the disease index and prevention and control effect were calculated according to the formula. […] The toxicity regression curve equation y=a+bx and the correlation coefficient r were obtained, and the EC50 of each single agent and different proportions of mixtures was calculated based on the regression equation. Based on the EC50 values of each single agent and compounded agent, the synergistic coefficients (SR) of each compounded agent were calculated according to Wadley method, and the compounding effect was evaluated by using SR value. […] In equations (1) and (2), SR is the synergistic coefficient of the mixture; X1 is the theoretical EC50 value of the mixture, unit: milligrams per liter (mg/L); X2 is the measured EC50 value of the mixture, unit: milligrams per liter (mg/L). […] X1′ is the theoretical value of the mixture, unit: milligrams per liter (mg/L); X2 is the measured value of the mixture, unit: milligrams per liter (mg/L). […] Similarly, the synergistic coefficients SRs of chlorothalonil and picoxystrobin (A+C)+tebuconazole (B) (referred to as (A+C)+B), tebuconazole and picoxystrobin (B+C)+chlorothalonil (A) (referred to as (B+C)+A) can be calculated.

[1] = 20° C., cited from earlier work
[2] = 25° C.; cited from earlier work
[3] = cited from earlier work

Row | SMILES | EC50 (plasmopara viticola) | solubility in an organic solvent ([1]; dichloromethane) | solubility in an organic solvent ([1]; hexane) | distribution coefficient log P [2] | Hydrolysis ([3]; pH>9) | Stability ([3]; storage at room temperature, weak alkaline and acidic aqueous solutions, UV radiation) | Measured EC50 value (X2) (plasmopara viticola)
1 | CC(C)(C)C(O)(CCc1ccc(Cl)cc1)Cn1cncn1 (racemic) [Tebuconazole] | 3.29 µg/mL | > 200 mg/mL | < 0.1 mg/mL | – | – | – | –
2 | N#Cc1c(Cl)c(Cl)c(Cl)c(C#N)c1Cl [Chlorothalonil] | 24.6 µg/mL | – | – | 2.92 | slowly hydrolyzed | stably stored at room temperature, and stable to weak alkaline and acidic aqueous solutions and UV radiation | –
3 | CO/C=C(/C(=O)OC)c1ccccc1COc1cccc(C(F)(F)F)n1 [Picoxystrobin] | – | – | – | – | – | – | 2.48 µg/mL
